Measurements from ChEMBL document CHEMBL5365451, “Discovery of CVN417, a Novel Brain-Penetrant α6-Containing Nicotinic Receptor Antagonist for the Modulation of Motor Dysfunction” (J Med Chem, 2023).

Assays:
[1] = Antagonist activity at human alpha6-alpha3/beta2/beta3 V273S mutant nAChR expressed in HEK293 cells assessed as nicotine-induced intracellular calcium release incubated for 15 mins by FLIPR analysis; format: cell-based; conditions: HEK293, 0.25 h
[2] = target: Neuronal acetylcholine receptor; alpha3/beta4 (Homo sapiens, UniProt P30926+P32297); experiment: Antagonist activity at human alpha3/beta4 nAChR expressed in HEK293 cells assessed as nicotine-induced intracellular calcium release incubated for 15 mins by FLIPR analysis; format: cell-based
[3] = target: Neuronal acetylcholine receptor; alpha4/beta2 (Homo sapiens, UniProt P17787+P43681); experiment: Antagonist activity at human alpha4/beta2 nAChR expressed in HEK293 cells assessed as nicotine-induced intracellular calcium release incubated for 15 mins by FLIPR analysis; format: cell-based
[4] = Intrinsic clearance in Sprague-Dawley rat at 0.5 mg/kg, iv by LC-MS/MS analysis; format: ADME, organism-based; conditions: in vivo
[5] = Volume of distribution at steady state in Sprague-Dawley rat at 0.5 mg/kg, iv by LC-MS/MS analysis; format: ADME, organism-based; conditions: in vivo, read-out: Vdss
[6] = Oral bioavailability in Sprague-Dawley rat 3 mg/kg by LC-MS/MS analysis; format: ADME, organism-based; conditions: in vivo
[7] = Drug exposure in Sprague-Dawley rat brain at 3 mg/kg, po measured for 2 hrs by LC-MS/MS analysis; format: ADME, organism-based; conditions: read-out: Drug uptake
[8] = Metabolic stability in human liver microsome assessed as clearance at 10 uM incubated upto 2 hrs by LC-MS/MS analysis; format: ADME; conditions: liver microsomes, read-out: CLH
[9] = Metabolic stability in rat liver microsome assessed as clearance at 10 uM incubated upto 2 hrs by LC-MS/MS analysis; format: ADME; conditions: liver microsomes, read-out: CLH
[10] = Metabolic stability in human liver microsome assessed as clearance preincubated for 60 mins followed by NADPH addition and measured after 60 mins by LC-MS/MS analysis; format: ADME; conditions: liver microsomes, time 120 min, read-out: CLH
[11] = Metabolic stability in rat liver microsome assessed as clearance preincubated for 60 mins followed by NADPH addition and measured after 60 mins by LC-MS/MS analysis; format: ADME; conditions: liver microsomes, time 120 min, read-out: CLH
Rattus norvegicus = experiment: Protection against tacrine-induced po dosed Sprague-Dawley rat tremulous jaw model assessed as decrease in tremor duration pretreated with compound for 90 mins followed by tacrine addition and measured after 5 mins; format: functional, organism-based; conditions: dose 3-25 mg/kg, time 95.0 min
Brain = experiment: Drug concentration in po dosed Sprague-Dawley rat brain measured after 2 hrs by LC-MS/MS analysis; format: functional, organism-based; conditions: dose 3-25 mg/kg

Sequence of Neuronal acetylcholine receptor; alpha4/beta2 (P17787 whole entry): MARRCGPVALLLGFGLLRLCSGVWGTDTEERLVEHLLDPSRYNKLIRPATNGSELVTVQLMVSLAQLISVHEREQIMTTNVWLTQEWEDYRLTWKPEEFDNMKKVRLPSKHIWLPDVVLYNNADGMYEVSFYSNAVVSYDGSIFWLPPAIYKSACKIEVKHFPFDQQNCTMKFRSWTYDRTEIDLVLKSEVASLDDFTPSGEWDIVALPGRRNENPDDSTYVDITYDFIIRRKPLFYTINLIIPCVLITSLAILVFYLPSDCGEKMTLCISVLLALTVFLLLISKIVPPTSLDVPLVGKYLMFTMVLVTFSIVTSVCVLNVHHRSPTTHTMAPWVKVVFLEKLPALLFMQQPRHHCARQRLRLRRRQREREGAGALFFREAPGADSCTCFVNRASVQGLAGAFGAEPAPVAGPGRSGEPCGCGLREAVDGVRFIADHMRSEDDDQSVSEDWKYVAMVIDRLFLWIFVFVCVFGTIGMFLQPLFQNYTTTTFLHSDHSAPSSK
Sequence of Neuronal acetylcholine receptor; alpha4/beta2 (P43681 whole entry): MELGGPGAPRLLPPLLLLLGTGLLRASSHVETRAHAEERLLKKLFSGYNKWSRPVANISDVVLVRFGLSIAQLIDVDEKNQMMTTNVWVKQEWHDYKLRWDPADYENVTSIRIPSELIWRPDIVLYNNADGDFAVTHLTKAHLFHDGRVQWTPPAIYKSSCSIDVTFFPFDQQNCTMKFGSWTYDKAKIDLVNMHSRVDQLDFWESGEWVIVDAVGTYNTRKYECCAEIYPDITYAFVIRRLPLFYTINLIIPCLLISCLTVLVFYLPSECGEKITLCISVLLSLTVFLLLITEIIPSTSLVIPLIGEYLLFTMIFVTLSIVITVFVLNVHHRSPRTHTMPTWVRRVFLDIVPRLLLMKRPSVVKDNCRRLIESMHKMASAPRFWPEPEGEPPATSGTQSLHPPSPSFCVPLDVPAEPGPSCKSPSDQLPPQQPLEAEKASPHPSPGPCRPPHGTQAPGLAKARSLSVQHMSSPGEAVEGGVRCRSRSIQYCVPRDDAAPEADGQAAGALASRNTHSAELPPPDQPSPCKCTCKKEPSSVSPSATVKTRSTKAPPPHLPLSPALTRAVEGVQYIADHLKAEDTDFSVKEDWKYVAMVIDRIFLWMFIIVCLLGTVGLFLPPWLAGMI
Sequence of Neuronal acetylcholine receptor; alpha3/beta4 (P30926 whole entry): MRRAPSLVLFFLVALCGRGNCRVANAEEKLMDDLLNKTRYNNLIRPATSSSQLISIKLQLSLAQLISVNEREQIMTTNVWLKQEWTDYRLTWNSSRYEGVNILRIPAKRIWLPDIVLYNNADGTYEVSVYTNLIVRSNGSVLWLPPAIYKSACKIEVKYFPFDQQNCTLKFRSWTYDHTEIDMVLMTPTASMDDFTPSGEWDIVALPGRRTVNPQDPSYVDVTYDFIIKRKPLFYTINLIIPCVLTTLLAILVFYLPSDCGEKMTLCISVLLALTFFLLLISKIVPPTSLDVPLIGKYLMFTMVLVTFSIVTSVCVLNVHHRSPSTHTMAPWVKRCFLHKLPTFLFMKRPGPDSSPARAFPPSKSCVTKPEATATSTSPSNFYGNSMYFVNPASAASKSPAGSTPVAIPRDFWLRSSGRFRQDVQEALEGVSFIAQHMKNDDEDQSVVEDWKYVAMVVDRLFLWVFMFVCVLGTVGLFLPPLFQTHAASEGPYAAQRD
Sequence of Neuronal acetylcholine receptor; alpha3/beta4 (P32297 whole entry): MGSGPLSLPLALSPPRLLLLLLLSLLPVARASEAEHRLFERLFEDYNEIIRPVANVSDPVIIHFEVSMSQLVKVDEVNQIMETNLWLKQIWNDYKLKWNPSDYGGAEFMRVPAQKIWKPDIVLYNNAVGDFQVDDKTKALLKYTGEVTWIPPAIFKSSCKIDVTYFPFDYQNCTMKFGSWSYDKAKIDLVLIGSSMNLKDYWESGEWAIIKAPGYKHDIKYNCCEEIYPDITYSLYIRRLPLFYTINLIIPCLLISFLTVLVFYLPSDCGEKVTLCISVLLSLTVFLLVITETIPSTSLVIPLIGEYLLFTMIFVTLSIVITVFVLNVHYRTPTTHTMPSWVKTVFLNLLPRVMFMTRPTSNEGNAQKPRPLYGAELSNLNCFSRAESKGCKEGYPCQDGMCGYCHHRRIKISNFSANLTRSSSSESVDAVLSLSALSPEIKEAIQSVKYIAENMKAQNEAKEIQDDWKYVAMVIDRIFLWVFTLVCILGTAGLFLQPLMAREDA

SMILES: CN1CCC(NC(=O)c2cc(-c3ccc(C(F)(F)F)cc3)n(C)n2)CC1
- IC50 [1]: 139 nM
- IC50 [2]: 4960 nM
- IC50 [3]: 1040 nM
- CL [4]: 41.5 mL/min/kg
- Vd [5]: 25.7 L/kg
- bioavailability [6]: 70.1%
- concentration at 2 h [7]: 2970 nM

SMILES: [2H]C([2H])([2H])Oc1ccc(-c2cc(C(=O)N[C@H]3CCCN(C([2H])([2H])[2H])C3)nn2C([2H])([2H])[2H])c(Cl)c1
- IC50 [1]: 89 nM
- microsomal CLint at 10 µM [8]: 0.7 µL/min/mg
- microsomal CLint at 10 µM [9]: 11 µL/min/mg

SMILES: CN1CCC[C@H](NC(=O)c2cc(-c3ccc(C(F)(F)F)cc3)n(C)n2)C1
- IC50 [1]: 93 nM
- IC50 [2]: 422 nM
- IC50 [3]: 3730 nM
- microsomal CLint [10]: 9.6 µL/min/mg
- microsomal CLint [11]: 2.5 µL/min/mg
- CL [4]: 40.5 mL/min/kg
- Vd [5]: 13 L/kg
- bioavailability [6]: 17.3%
- concentration at 2 h [7]: 1090 nM

SMILES: CN(C)C1(CNC(=O)c2cc(-c3ccc(C(F)(F)F)cc3)n(C)n2)CCCC1
- IC50 [1]: 183 nM
- IC50 [2]: 1410 nM
- IC50 [3]: 281 nM
- CL [4]: 81.8 mL/min/kg
- Vd [5]: 18.7 L/kg
- bioavailability [6]: 27.8%
- concentration at 2 h [7]: 30 nM

SMILES: COc1ccc(-c2cc(C(=O)N[C@H]3CN(C)CCC3(F)F)nn2C)c(Cl)c1
- IC50 [1]: 115 nM
- microsomal CLint at 10 µM [8]: 75.5 µL/min/mg
- microsomal CLint at 10 µM [9]: 204 µL/min/mg

SMILES: CN1CCC[C@@H](NC(=O)c2cc(-c3ccc(C(F)(F)F)cc3)n(C)n2)C1
- IC50 [1]: 80 nM
- IC50 [2]: 637 nM
- IC50 [3]: 2820 nM
- microsomal CLint [10]: 21.4 µL/min/mg
- microsomal CLint [11]: 3.5 µL/min/mg
- CL [4]: 70 mL/min/kg
- Vd [5]: 13.4 L/kg
- bioavailability [6]: > 100%
- concentration at 2 h [7]: 1910 nM

SMILES: COc1ccc(-c2cc(C(=O)N[C@@H]3CCCN(C)C3)nn2C)c(Cl)c1
- IC50 [1]: 77 nM
- IC50 [2]: 2090 nM
- IC50 [3]: 563 nM
- Activity (Rattus norvegicus): Dose-Dependent Effect
- Drug uptake (Brain): Dose-Dependent Effect

SMILES: Cn1nc(C(=O)NCC2CCCOC2)cc1-c1ccc(C(F)(F)F)cc1 (racemic)
- IC50 [1]: 3290 nM

SMILES: COc1ccc(-c2cc(C(=O)N[C@@H]3CCCN(C)C3)nn2C)cc1
- IC50 [1]: 230 nM
- IC50 [2]: > 10000 nM
- IC50 [3]: 3500 nM

SMILES: CN1CCC[C@H](NC(=O)c2cc(-c3ccc(C(F)(F)F)cc3Cl)n(C)n2)C1
- IC50 [1]: 83 nM
